Assay: Human HepG2 cell viability assay in 384 well format
Type: toxicity, cell-based
Parameters: dose 125 nL, time 70.5 hour; concentration not given beside the values
Conditions: HepG2 cells, read-out: Inhibition

Compound	cytotoxicity at 70.5 h
O=C(c1nc(Cc2c[nH]c3ccccc23)no1)N1CCCCC1	-7.41%
CCCc1nc2c(c(C)c(C)n2CCN(C)C)c(N)c1CC	3.64%
Cc1cc(C)n2c(CCCNS(=O)(=O)c3cccs3)nnc2n1	-10.2%
CCc1c(-c2ccccc2)nc2c(c(C)c(C)n2CCN(C)C)c1N	15.2%
COC(=O)CNC(=O)Cn1ccc2ccc(F)cc21	-3.86%
Cc1c(-c2ccccc2)nc2c(c(C)c(C)n2CCN(C)C)c1N	13.6%
COc1cccc(-c2nc(C)c(C(=O)N[C@H](CO)CC(C)C)s2)c1	-22.7%
CC(C)Cc1nc(OCC(N)=O)c(C#N)c2c1CCCC2	-9.41%
COCCNC(=O)Cn1ccc2ccc(F)cc21	-3.63%
CC[C@H](C)[C@H](NC(=O)Cn1ccc2ccc(F)cc21)C(=O)OC	-1.27%
O=C1CCCC2=C1C(c1ccc(F)cc1F)Nc1nonc1N2 (centres undefined)	12.1%
CC(C)CNC(=O)c1nc(COc2ccc3c(c2)OCO3)no1	-7.9%
CC[C@H](C)[C@H](NC(=O)c1cccc(-n2cnnn2)c1)C(=O)OC	-11%
CNC(=O)c1cccnc1N1CCN(Cc2ccccc2)C(CCO)C1 (centres undefined)	-14.9%
Cc1nn2c(N3CCCC(C#N)C3)cc(-c3ccccc3)nc2c1C (centres undefined)	1.82%
CNC(=O)c1sccc1S(=O)(=O)NC	-6.63%
Cc1nc(O)cc(CCNC(=O)CC[C@@H]2CCCN3CCCC[C@H]23)n1	-9.84%
CC1CCN(C(=O)c2cccc(CN3CCOCC3)c2)CC1	-5.87%
CN1CCN(C(=O)c2cccc(CN3CCOCC3)c2)CC1	-2.6%
Nc1cc(N2CCC(c3cc(Cc4ccccc4)n[nH]3)CC2)ccn1	2.05%
COc1ccc(SC(C)C(=O)N2CCC(C(N)=O)CC2)cc1 (centres undefined)	-14.1%
CN(CCCO)C(=O)c1ccc2c(c1)nc(N1CC[C@H](O)C1)n2C	-7.06%
Cc1nnc(-c2cccc(N3CCC(NC4CCSC4)CC3)c2)s1 (centres undefined)	4.71%

Compound	cytotoxicity at 70.5 h
CN1C[C@@H](n2cnc(-c3ccccc3)c2-c2c[nH]cn2)C[C@H]1C(=O)O	-7.26%
c1coc(CN2CCn3c(nc4ccccc43)C2)c1	29.8%
Cc1cc(Cc2ccc(S(=O)(=O)N3CCOCC3)cc2)c(=O)[nH]n1	12.1%
CS(=O)(=O)N(Cc1ccon1)c1ccc(F)cc1	-2.76%
CS(=O)(=O)N(Cc1ccon1)c1ccc2c(c1)OCO2	-6.03%
Cc1cc(C(F)(F)F)cc(=O)n1CCn1cc(Cl)cn1	-11.3%
Cc1cccc(N2CCC3(CCCN3Cc3c(C)nn(C)c3C)CC2)n1	-3.1%
O=C1N(c2ccc(Br)cc2)Cc2n[nH]c(=O)n21	23.8%
Cc1ccc(-c2ccc(Cl)nn2)cc1S(=O)(=O)N1CCOCC1	-5.38%
CC(C)N1CC(n2ccnc2-c2nccn2C)CC1=O (centres undefined)	-7.49%
COc1ccc(-n2ncc(C(C)NC3CCSCC3)c2C)cc1 (centres undefined)	-4.41%
CC(C)(C)OC(=O)NC1CCCN(Cc2cccs2)C1 (centres undefined)	6.34%
CCn1ccnc1CN1C[C@@H](NC(=O)C2CC2)[C@H](c2ccc(C)cc2)C1	23.8%
Cc1nc2ccccc2n1Cc1cc(C(=O)N2C[C@@H](C)O[C@@H](C)C2)no1	-8.42%
CCCC1(CO)CCCN(C(=O)CCCn2nc(C)cc2C)C1 (centres undefined)	-0.556%
CN(c1ccc(C(=O)NCCCN2CCCCC2)c(Cl)c1)S(C)(=O)=O	-2.79%
Fc1ccc(-c2noc3c2CN(CC2CC2)CC3)cc1F	-29.6%
CN(C)CCCNC(=O)c1ccc(N(C)S(C)(=O)=O)cc1Cl	-5.53%
CCC(NC(=O)C1CCN(S(C)(=O)=O)CC1)c1ccc(C)c(C)c1 (centres undefined)	-4.17%
CCCNCc1ccc(-c2cc(N)nc3[nH]ccc23)cc1	-0.725%
CC(C)(C)OC(=O)NC1CCCN(Cc2cccc(O)c2)C1 (centres undefined)	-4.69%
CCOc1ccccc1C(C(=O)O)N(C)Cc1nc(C)c[nH]1 (centres undefined)	-6.68%
CCC(C)N(Cc1cc(C)n[nH]1)Cc1ccccc1Cl (centres undefined)	-10.8%

Compound	cytotoxicity at 70.5 h
O=C1NC[C@@]2(C(=O)O)CN(Cc3cccc(Oc4ccccc4)c3)C[C@@H]12	-4.3%
O=C(NCc1cc2n(n1)CCCNC2)C1(c2ccc(Cl)cc2)CCC1	1.64%
Cc1nnc(CCNC(=O)C2CC(=O)N(C(C)(C)C)C2)s1 (centres undefined)	26.2%
O=C1COc2cc(C(=O)NS(=O)(=O)c3ccc(F)cc3)ccc2N1	-17.6%
O=C1COc2ccc(C(=O)NS(=O)(=O)c3cc(F)ccc3F)cc2N1	-8.54%
COc1ccc(OCCN2CCN(Cc3nccn3C)CC2)cc1	12.8%
CCN(CC1CCOC1)C(=O)c1cc(F)ccc1N1CCN(C)CC1 (centres undefined)	46%
CCOCC1CCCN(C(=O)NCc2ccc(-c3ccn[nH]3)cc2)C1 (centres undefined)	12.5%
CSC(C)C(=O)N1CCCN(c2ncccc2C#N)CC1 (centres undefined)	12.4%
COc1ccc(C(=O)N2CCCC2c2cnn(C)c2)cn1 (centres undefined)	9.21%
CCN(CC1CCOC1)C(=O)c1ccc(N2CCOCC2)c(F)c1 (centres undefined)	-6.24%
Cc1occc1C(=O)N1CCCN(Cc2nccn2C)CC1	-8.79%
N#Cc1ccccc1N1CCCN(C(=O)NCc2cc[nH]n2)CC1	-6.85%
CCN(CC1CCOC1)C(=O)c1ccccc1S(C)(=O)=O (centres undefined)	-4.17%
CCOc1ccccc1N1CCN(C(=O)NCc2cc[nH]n2)CC1	18.3%
CC(C)(C)c1ncc(C(=O)NCCNC(=O)c2ccco2)s1	-6.05%
CC(C)(C)c1ncc(C(=O)NCCNC(=O)c2ccc(O)cc2)s1	-7.09%
CC(C)(C)c1ncc(C(=O)NCCNS(C)(=O)=O)s1	-7.98%
NC(=O)CC1CCN(C(=O)NCc2ccc(-c3ccn[nH]3)cc2)CC1	-11.3%
CN(CCCOc1ccccc1)Cc1nc2c(cnn2C)c(=O)[nH]1	-1.06%
COC(=O)c1ccc(N2CCN(CCS(C)(=O)=O)C(C)C2)cc1 (centres undefined)	-3.48%
CCN1CCN(C(=O)NCc2cc[nH]n2)CC1	-8.83%
COc1c(CNC2CCN(c3ncccn3)CC2)c(C)nn1C	-8.59%

Compound	cytotoxicity at 70.5 h
Cn1cc(C2CCCN2C(=O)c2ccc(OCC3CC3)nc2)cn1 (centres undefined)	-4.15%
Cn1ccnc1CN1CCCN(C(=O)c2ccc3ccccc3c2)CC1	1.95%
CN(C)c1cc(C(=O)N2CCCN(Cc3nccn3C)CC2)ccn1	14.3%
Cc1cccc(NS(=O)(=O)c2cc3c(c(C(=O)O)c2)OCCO3)c1	-7.67%
CC(C)Oc1ccc(C(=O)N2CCCC2c2cnn(C)c2)cn1 (centres undefined)	-3%
CC(C)c1ncc2c(n1)CN(CC(=O)Nc1ccncc1)CC2	-7.98%
Cn1ccnc1CN1CCCN(C(=O)c2ccc3cc[nH]c3c2)CC1	-7.08%
Cc1ncc2c(n1)CN(CC(=O)Nc1nccs1)CC2	-10.4%
CN(CC(=O)Nc1ccncc1)C1CCCN(c2cccnn2)C1 (centres undefined)	-3.61%
O=C(NCCOc1ccc2c(c1)OCO2)C1CC(=O)N(C2CC2)C1 (centres undefined)	3.82%
CSc1nccn1-c1cccc(C(=O)NCCN2CCS(=O)(=O)CC2)c1	0.708%
CSc1nccn1-c1cccc(C(=O)NCC(F)(F)F)c1	-0.984%
CCC1CCCCN1Cc1nc2c(cnn2C)c(=O)[nH]1 (centres undefined)	-0.935%
CCCNC(=O)C(C)N1CCC(C(=O)Nc2cnn(CC)c2)CC1 (centres undefined)	-4.58%
CCn1cc(NC(=O)C2CCN(CC(=O)NCC(C)C)CC2)cn1	-5.15%
Cc1cc(C)n(CC2CN(c3ccc(C#N)cn3)CCO2)n1 (centres undefined)	-3.22%
NC(=O)CC1CCCCN1C(=O)c1cccc(C(F)(F)F)c1 (centres undefined)	-0.919%
Cc1ccc(C(=O)N2CCCCC2CNC(N)=O)cc1F (centres undefined)	0.819%
Cc1cccc(-c2nc(CNC3CCc4ncnn4C3)no2)c1 (centres undefined)	-4.91%
c1ccc(-c2nc(CNC3CCc4ncnn4C3)no2)cc1 (centres undefined)	-3.91%
Cc1nccn1C1CCCN(C(=O)c2ccc(N(C)C)nn2)C1 (centres undefined)	-4.18%
Cc1nccn1C1CCCN(C(=O)c2ccc(-n3cccn3)nc2)C1 (centres undefined)	0.896%
COc1ccccc1OCCC(=O)N1CCCC1Cn1cccn1 (centres undefined)	2.97%

Compound	cytotoxicity at 70.5 h
O=C(CCOc1ccc(F)cc1)N1CCCC1Cn1cccn1 (centres undefined)	-2.78%
Cn1cc(-c2nc(C(=O)N3CCCC3Cn3cccn3)cs2)cn1 (centres undefined)	-4.01%
CCCc1n[nH]c(C2CN(C(=O)c3n[nH]c4ccccc34)CCO2)n1 (centres undefined)	-6.7%
CCCc1n[nH]c(C2CN(C(=O)c3ccc4c(c3)COC4)CCO2)n1 (centres undefined)	-4.22%
CCCc1n[nH]c(C2CN(C(=O)c3ccc(C)[nH]c3=O)CCO2)n1 (centres undefined)	15.4%
CSc1nccn1-c1ccc(C(=O)NCC2CC2)cc1	-4.68%
O=C(c1csc(C2CC2)n1)N1CCCC1Cn1cccn1 (centres undefined)	0.252%
COCCN1CCC(CNC(=O)C2(c3cccc(C)c3)CC2)C1 (centres undefined)	17.2%
COc1c(CNCCC(=O)NC2CCCC2)c(C(C)C)nn1C	0.44%
CCOc1ccccc1C1=CCN(C(=O)C2CCN(C)C(=O)C2)CC1 (centres undefined)	16.3%
CCc1cnc(CN(C(C)=O)C2CCN(CCc3ccccn3)C2)o1 (centres undefined)	1.82%
Cc1cccc(OCCNC(=O)CN2CCCC2Cn2cncn2)c1 (centres undefined)	-4.68%
O=C(CN1CCCCC1Cn1cncn1)NCCOc1ccccc1 (centres undefined)	-1.79%
CCOc1cc(C(=O)N2CCCC(c3noc(CC)n3)C2)ccn1 (centres undefined)	-2.83%
COc1ccc(C(=O)N(Cc2cnn(C)c2)C(C)C)cc1OC(F)F	-3.59%
CCOc1cc(C(=O)N2CCCC(c3nc(C)c(C)s3)C2)ccn1 (centres undefined)	3.48%
Cc1nc(C2CCCN2Cc2ccc(S(=O)(=O)N(C)C)o2)no1 (centres undefined)	-5.97%
CC(C)CCc1nc(CN2CCOC(Cn3cncn3)C2)cs1 (centres undefined)	-2.95%
O=C(CS(=O)(=O)Cc1cc(Cl)c2c(c1)OCO2)N1CCCCCC1	-2.51%
COc1ccc(C2=CCN(C(=O)C3CCS(=O)(=O)C3)CC2)cc1 (centres undefined)	19.4%
CNS(=O)(=O)c1ccc(C(=O)N2CCCC2c2ccncc2)o1 (centres undefined)	-2.81%
Cc1cc(C2CCCN2Cc2ccc(S(=O)(=O)N(C)C)o2)on1 (centres undefined)	-1.52%

Reference: ChEMBL document CHEMBL3507680, “University of Dundee, Gates Library screen for HepG2 cell viability”
